# Key:
# [1] = Apparent total plasma clearance in fasted state healthy human at 200 mg, po administered as single dose; assay type: ADME, organism-based
# [2] = Half life in healthy human at 800 mg, po qd after 1 day; assay type: ADME, organism-based; conditions: in vivo
# [3] = Apparent total volume of distribution in fed state healthy human at 400 mg, po administered as single dose; assay type: ADME, organism-based; conditions: in vivo, read-out: Vz/F
# [4] = Tmax in fed state healthy human at 800 mg, po administered as single dose; assay type: ADME, organism-based; conditions: in vivo
# [5] = AUC (0 to infinity) in fed state healthy human at 200 mg, po administered as single dose; assay type: ADME, organism-based; set-up: dose 200 mg, route oral, time infinity; conditions: plasma
# [6] = Half life in fasted state healthy human at 100 mg, po administered as single dose; assay type: ADME, organism-based; conditions: in vivo
# [7] = Plasma concentration in fed state healthy human at 200 mg, po administered as single dose after 24 hrs; assay type: ADME, organism-based
# [8] = Apparent total volume of distribution in fed state healthy human at 200 mg, po administered as single dose; assay type: ADME, organism-based; conditions: in vivo, read-out: Vz/F
# Homo sapiens [9] = assay: Toxicity in healthy human assessed as incidence of pollakiuria at 400 mg, po bid and 800 mg, po qd for 7 days; assay type: organism-based; conditions: in vivo, 168 h
# [10] = Apparent total plasma clearance in fed state healthy human at 200 mg, po administered as single dose; assay type: ADME, organism-based
# [11] = Tmax in healthy human at 400 mg, po bid after 7 days; assay type: ADME, organism-based; conditions: in vivo
# [12] = Cmax in fasted state healthy human at 200 mg, po administered as single dose; assay type: ADME, organism-based; set-up: dose 200 mg, route oral; conditions: in vivo
# [13] = Trough plasma concentration in healthy human at 800 mg, po qd after 1 day; assay type: ADME, organism-based; conditions: read-out: Cmin
# [14] = Tmax in healthy human at 800 mg, po qd after 1 day; assay type: ADME, organism-based; conditions: in vivo
# [15] = Apparent total volume of distribution in fasted state healthy human at 400 mg, po administered as single dose; assay type: ADME, organism-based; conditions: in vivo, read-out: Vz/F
# [16] = Cmax in fasted state healthy human at 100 mg, po administered as single dose; assay type: ADME, organism-based; set-up: dose 100 mg, route oral; conditions: in vivo
# [17] = Plasma concentration in fed state healthy human at 800 mg, po administered as single dose after 24 hrs; assay type: ADME, organism-based
# [18] = Apparent total volume of distribution in fasted state healthy human at 200 mg, po administered as single dose; assay type: ADME, organism-based; conditions: in vivo, read-out: Vz/F
# [19] = Cmax in healthy human at 800 mg, po qd after 7 days; assay type: ADME, organism-based; set-up: dose 800 mg, route oral; conditions: in vivo
# Homo sapiens [20] = assay: Toxicity in healthy human assessed as occurrence of nausea at 50 to 1200 mg, po administered as single dose; assay type: organism-based; conditions: in vivo
# Homo sapiens [21] = species on record: Homo sapiens; assay: Protein binding in human; assay type: ADME, organism-based; conditions: in vivo
# [22] = test system: Human immunodeficiency virus 1; assay: Antiviral activity against HIV1; assay type: functional, organism-based
# [23] = Cmax in fed state female healthy human at 400 mg, po administered as single dose; assay type: ADME, organism-based; set-up: dose 400 mg, route oral; conditions: in vivo
# [24] = AUC (0 to infinity) in fed state female healthy human at 400 mg, po administered as single dose; assay type: ADME, organism-based; set-up: dose 400 mg, time infinity, route oral; conditions: plasma
# [25] = Apparent total plasma clearance in fed state female healthy human at 400 mg, po administered as single dose; assay type: ADME, organism-based
# [26] = Cmax in fed state healthy human at 1200 mg, po administered as single dose; assay type: ADME, organism-based; set-up: dose 1200 mg, route oral; conditions: in vivo
# [27] = AUC (0 to infinity) in healthy human at 800 mg, po qd after 1 day; assay type: ADME, organism-based; set-up: dose 800 mg, time infinity, route oral; conditions: plasma
# [28] = Apparent total volume of distribution in healthy human at 800 mg, po qd after 7 days; assay type: ADME, organism-based; conditions: in vivo, read-out: Vz/F
# Homo sapiens [29] = assay: Toxicity in healthy human assessed as incidence of abnormal dreams at 400 mg, po bid and 800 mg, po qd for 7 days; assay type: organism-based; conditions: in vivo, 168 h
# [30] = Plasma concentration in fed state female healthy human at 400 mg, po administered as single dose after 24 hrs; assay type: ADME, organism-based
# [31] = Plasma concentration in fasted state healthy human at 100 mg, po administered as single dose after 24 hrs; assay type: ADME, organism-based
# Homo sapiens [32] = assay: Toxicity in healthy human assessed as incidence of adverse events at 400 mg, po bid and 800 mg, po qd for 7 days; assay type: organism-based; conditions: in vivo, 168 h
# [33] = Trough plasma concentration in healthy human at 800 mg, po qd after 7 days; assay type: ADME, organism-based; conditions: read-out: Cmin
# [34] = Half life in fasted state healthy human at 50 mg, po administered as single dose; assay type: ADME, organism-based; conditions: in vivo
# [35] = AUC (0 to infinity) in fasted state healthy human at 50 mg, po administered as single dose; assay type: ADME, organism-based; set-up: dose 50 mg, route oral, time infinity; conditions: plasma
# [36] = Half life in healthy human at 400 mg, po bid after 7 days; assay type: ADME, organism-based; conditions: in vivo
# [37] = Plasma concentration in fasted state healthy human at 400 mg, po administered as single dose after 24 hrs; assay type: ADME, organism-based
# Homo sapiens [38] = assay: Toxicity in healthy human assessed as occurrence of abnormal dreams at 50 to 1200 mg, po administered as single dose; assay type: organism-based; conditions: in vivo
# [39] = Plasma concentration in fasted state healthy human at 200 mg, po administered as single dose after 24 hrs; assay type: ADME, organism-based
# [40] = Apparent total volume of distribution in fed state healthy human at 800 mg, po administered as single dose; assay type: ADME, organism-based; conditions: in vivo, read-out: Vz/F
# [41] = Apparent total volume of distribution in healthy human at 400 mg, po bid after 7 days; assay type: ADME, organism-based; conditions: in vivo, read-out: Vz/F
# Homo sapiens [42] = assay: Toxicity in healthy human assessed as occurrence of pollakiuria at 50 to 1200 mg, po administered as single dose; assay type: organism-based; conditions: in vivo
# [43] = Cmax in fed state healthy human at 200 mg, po administered as single dose; assay type: ADME, organism-based; set-up: dose 200 mg, route oral; conditions: in vivo
# [44] = Cmax in fasted state healthy human at 400 mg, po administered as single dose; assay type: ADME, organism-based; set-up: dose 400 mg, route oral; conditions: in vivo
# [45] = Tmax in fasted state healthy human at 200 mg, po administered as single dose; assay type: ADME, organism-based; conditions: in vivo
# [46] = AUC (0 to infinity) in healthy human at 400 mg, po bid after 7 days; assay type: ADME, organism-based; set-up: dose 400 mg, route oral, time infinity; conditions: plasma
# [47] = Apparent total volume of distribution in fasted state healthy human at 50 mg, po administered as single dose; assay type: ADME, organism-based; conditions: in vivo, read-out: Vz/F
# [48] = Oral bioavailability in human; assay type: ADME, organism-based; conditions: in vivo
# [49] = Half life in fed state healthy human at 800 mg, po administered as single dose; assay type: ADME, organism-based; conditions: in vivo
# [50] = AUC (0 to infinity) in fed state healthy human at 400 mg, po administered as single dose; assay type: ADME, organism-based; set-up: dose 400 mg, route oral, time infinity; conditions: plasma
# [51] = AUC (0 to infinity) in fed state healthy human at 1200 mg, po administered as single dose; assay type: ADME, organism-based; set-up: dose 1200 mg, route oral, time infinity; conditions: plasma
smiles,measurement,setting,value
COP(=O)(c1cc(C)cc(/C=C/C#N)c1)c1c(C(N)=O)[nH]c2ccc(Cl)cc12 (stereo unspecified),CL/F,[1],555 mL/min
same,half-life,[2],8.3 h
same,Vd/F,[3],166 L
same,Tmax,[4],6 h
same,AUC(0-inf),[5],16800 ng·h/mL
same,half-life,[6],6.8 h
same,concentration at 24 h,[7],190 ng/mL
same,Vd/F,[8],201 L
same,Activity,Homo sapiens [9],12.5%
same,CL/F,[10],230 mL/min
same,Tmax,[11],4 h
same,Cmax,[12],700 ng/mL
same,concentration at 24 h,[13],900 ng/mL
same,Tmax,[14],4 h
same,Vd/F,[15],606 L
same,Cmax,[16],3000 ng/mL
same,concentration at 24 h,[17],540 ng/mL
same,Vd/F,[18],555 L
same,Cmax,[19],4600 ng/mL
same,Activity,Homo sapiens [20],4.1%
same,Activity,Homo sapiens [21],> 99.8%
same,IC50,[22],1.2 nM
same,Cmax,[23],1900 ng/mL
same,AUC(0-inf),[24],26500 ng·h/mL
same,CL/F,[25],268 mL/min
same,Cmax,[26],5600 ng/mL
same,AUC(0-inf),[27],68000 ng·h/mL
same,Vd/F,[28],366 L
same,Activity,Homo sapiens [29],6.3%
same,concentration at 24 h,[30],290 ng/mL
same,concentration at 24 h,[31],90 ng/mL
same,Activity,Homo sapiens [32],43.8%
same,concentration at 168 h,[33],900 ng/mL
same,half-life,[34],6.2 h
same,AUC(0-inf),[35],8800 ng·h/mL
same,half-life,[36],12.3 h
same,concentration at 24 h,[37],160 ng/mL
same,Activity,Homo sapiens [38],2%
same,concentration at 24 h,[39],70 ng/mL
same,Vd/F,[40],301 L
same,Vd/F,[41],236 L
same,Activity,Homo sapiens [42],0%
same,Cmax,[43],1300 ng/mL
same,Cmax,[44],1100 ng/mL
same,Tmax,[45],1.5 h
same,AUC(0-inf),[46],35200 ng·h/mL
same,Vd/F,[47],53.3 L
same,bioavailability,[48],61%
same,half-life,[49],11.5 h
same,AUC(0-inf),[50],36000 ng·h/mL
same,AUC(0-inf),[51],106000 ng·h/mL

# Source: ChEMBL document CHEMBL1649173, “Single-dose escalation and multiple-dose safety, tolerability, and pharmacokinetics of IDX899, a candidate human immunodeficiency virus type 1 nonnucleoside reverse transcriptase inhibitor, in healthy subjects” (Antimicrob Agents Chemother, 2009)
